Usually melting point stands for the temperature, or range, at which the solid turns liquid.

Series [1] deals with Botryotinia fuckeliana (Botrytis cinerea). Kind of series: Botryotinia fuckeliana (Botrytis cinerea) / liquid culture (Gray mould). The series is classed as cell-based. As to conditions: growth inhibition photometrically 3-4 days after application, vs untreated control.
For series [2], the system named is Glomerella lagenarium (Colletotrichum lagenarium). Kind of series: Glomerella lagenarium (Colletotrichum lagenarium) / liquid culture (Anthracnose). To be noted: Colletotrichum orbiculare, growth inhibition photometrically 3-4 days after application, vs untreated control. Type of series: cell-based.
Series [3] concerns Fusarium culmorum. Kind of series: microbe, parasite or virus in culture. As to conditions: read-out: control of Fusarium culmorum. Type of series: cell-based.
Series [4] relates to Monographella nivalis (Microdochium nivale). Kind of series: Monographella nivalis (Microdochium nivale) / liquid culture (foot rot cereals). As to conditions: growth inhibition photometrically 4-5 days after application, vs untreated control. Type of series: cell-based.
The test system of series [5] is Magnaporthe grisea (Pyricularia oryzae). Kind of series: microbe, parasite or virus in culture. Type of series: cell-based. To be noted: read-out: control of Magnaporthe grisea.
The subject of series [6] is Fusarium culmorum. Kind of series: whole plant or invertebrate. The series is classed as in vivo. As to conditions: in Triticum aestivum, 144 h, read-out: control of Fusarium culmorum.

`Cc1nn(CC(C)(CC(C)C)NC(=O)c2cnc3c(F)cccc3c2)c(C)c1C` (stereo not drawn) [E20] showed a melting point of 140 to 144 °C. The molecule also displayed an inhibition of growth at 20 ppm in series [1] not below 80%. Also, the inhibition of growth at 20 ppm in series [2] is not below 80%. Moreover, the inhibition of growth at 20 ppm in the series with Fusarium culmorum [3] is not below 80%. This molecule also yielded an inhibition of growth at 20 ppm in series [4] not below 80%.
`CC(CC1CCCOC1)(CC(F)(F)F)NC(=O)c1cnc2c(F)cccc2c1` (stereo not drawn) [E38] registered a melting point of 85 to 88 °C. The inhibition of growth at 20 ppm in series [1] was not below 80%. Further, the inhibition of growth at 20 ppm in series [2] was not below 80%. In addition, in the series on Fusarium culmorum [3], the inhibition of growth at 20 ppm was not below 80%. The same molecule had an inhibition of growth at 20 ppm in series [4] not below 80%. Besides, the inhibition of growth at 20 ppm in series [5] was not below 80%.
As to `Cc1cnc(CC(C)(CC(C)(C)C)NC(=O)c2cnc3c(F)cccc3c2)o1` (stereo not drawn) [E1], the inhibition of growth at 20 ppm (in series [1]; in series [2]; in the series with Fusarium culmorum [3]; in series [4]) was not below 80% in each case.
`CC(C)CC(C)(Cc1ccc(Cl)s1)NC(=O)c1cnc2c(F)cccc2c1` (stereo not drawn) [E14, N-[1-[(5-chloro-2-thienyl)methyl]-1,3-dimethyl-butyl]-8-fluoro-quinoline-3-carboxamide] displayed a melting point of 126 to 128 °C. The inhibition of growth at 20 ppm in series [1] is not below 80%. This molecule returned an inhibition of growth at 20 ppm in series [2] not below 80%. Besides, the inhibition of growth at 20 ppm in the series with Fusarium culmorum [3] was not below 80%. Besides, the pest or weed control at 200 ppm with Fusarium culmorum [6] was not below 80%. For the same molecule, in series [4], the inhibition of growth at 20 ppm was not below 80%. In series [5], the inhibition of growth at 20 ppm was not below 80%.
Turning to `CC(C)CC(C)(CN1CCCC=N1)NC(=O)c1cnc2c(F)cccc2c1` (stereo not drawn) [E24], the inhibition of growth at 20 ppm in series [1], in series [2] and in series [4] was not below 80% throughout. The pest or weed control at 200 ppm with Fusarium culmorum [6] is not below 80%.
For `Cc1cccc2cc(C(=O)NC(C)(Cc3cccc(F)n3)CC(F)(F)F)cnc12` (stereo not drawn) [E33], the inhibition of growth at 20 ppm (in series [1]; in series [2]; with Fusarium culmorum [3]; in series [4]; in series [5]) was not below 80% throughout. Moreover, the pest or weed control at 200 ppm with Fusarium culmorum [6] is not below 80%.
In the case of `Cc1cc(C)n(CC(C)(CC(C)C)NC(=O)c2cnc3c(F)cccc3c2)n1` (stereo not drawn) [E21], the inhibition of growth at 20 ppm (in series [1]; in series [2]; with Fusarium culmorum [3]; in series [4]; in series [5]) was not below 80% throughout.
With `CC(C)C[C@@](C)(CN1CCCC(F)(F)C1)NC(=O)c1cnc2c(F)cccc2c1` (single isomer, unassigned) [F2], the inhibition of growth at 20 ppm (in series [1]; in series [2]; in the series with Fusarium culmorum [3]; in series [4]; in series [5]) was not below 80% each time. For the same molecule, in the series with Fusarium culmorum [6], the pest or weed control at 200 ppm was not below 80%.
On to `CC1=NN(CC(C)(CC(C)C)NC(=O)c2cnc3c(F)cccc3c2)CCC1` (stereo not drawn) [E23], for which the inhibition of growth at 20 ppm (in series [1]; in series [2]; in the series with Fusarium culmorum [3]; in series [4]) was not below 80% in each case.
`Cc1cccc2cc(C(=O)NC(C)(CC3CCCOC3)CC(F)(F)F)cnc12` (stereo not drawn) [E37]: the inhibition of growth at 20 ppm (in series [1]; in series [2]; with Fusarium culmorum [3]; in series [4]; in series [5]) was not below 80% each time.
In turn, `Cc1nn(CC(C)(CC(C)C)NC(=O)c2cnc3c(F)cccc3c2)c(C)c1Cl` (stereo not drawn) [E19] gave a melting point of 134 to 138 °C. This molecule also returned an inhibition of growth at 20 ppm in series [1] not below 80%. In series [2], this molecule displayed an inhibition of growth at 20 ppm not below 80%. Moreover, the inhibition of growth at 20 ppm in the series with Fusarium culmorum [3] is not below 80%. Further, the inhibition of growth at 20 ppm in series [4] is not below 80%.
With `CC(C)CC(C)(CN1CCCCO1)NC(=O)c1cnc2c(F)cccc2c1` (stereo not drawn) [E6], the inhibition of growth at 20 ppm (in series [1]; in series [2]; with Fusarium culmorum [3]; in series [4]; in series [5]) was not below 80% in each case. Besides, in the series with Fusarium culmorum [6], the pest or weed control at 200 ppm is not below 80%.

(Values after US11266146B2, “Microbiocidal quinoline (thio)carboxamide derivatives” (SYNGENTA PARTICIPATIONS AG, priority 2017, dated 2022).)
